Source: US20130167838A1, “NASAL FORMULATION” (TEVA BRANDED PHARMACEUTICAL PRODUCTS, INC., priority 2011, published 2013)
Structures can show the parent of a compound that is named as a salt.

Columns and labels:
[1] = Solubility in an HFA/ethanol formulation; assay type: physicochemical
From the text: Azelastine has been marketed as the hydrochloride salt, but the problem is that the hydrochloride salt is not soluble in an HFA/ethanol formulation.

[2] = Stability of active ingredients in ethanol formulations with and without hydrochloric acid, stored at 60° C. for 21 days, HPLC; assay type: physicochemical; details: ethanol formulations with vs without HCl, FIG. 2
Protocol: Further formulations were prepared containing the active ingredient(s) and ethanol with and without hydrochloric acid in order to test the stability of the active ingredients. The formulations were: Formulation (i): azelastine+BDP, with acid Formulation (ii): BDP without acid Formulation (iii): BDP with acid Formulation (iv): azelastine+BDP, without acid The precise ethanol formulations were as follows: [table] The formulations were stored at 60° C. for 21 days and the amounts of the active ingredients measured at intervals during the test period. The amounts of the active ingredients were measured using HPLC with external standards of azelastine free base and BDP. The results are shown graphically in FIG. 2. […] The BDP with no acid and no azelastine was […]. However, the combination of BDP with both acid and azelastine is […].

CN1CCCC(n2nc(Cc3ccc(Cl)cc3)c3ccccc3c2=O)CC1 (centres unmarked) [hydrochloride salt, azelastine hydrochloride]
solubility in an HFA/ethanol formulation [1]: not soluble

CN1CCCC(n2nc(Cc3ccc(Cl)cc3)c3ccccc3c2=O)CC1 (centres unmarked) [azelastine, Azelastine]
stabilisation of the azelastine by including an acid (amount measured by HPLC) [2]: some additional stabilisation
